Experimental data taken from US8465808B2, “Process for depositing an organic acid on the surface of a metal composition” (Duquesne University of the Holy Spirit, priority 2005, dated 2013).

What was measured:
[1] = Static contact angle goniometry with water on modified SS316L; assay type: physicochemical; settings: SAM of the acid on SS316L; for Contact angle values: static, average of at least 3 samples, 6 readings each
Method: Static contact angles were measured using VCA Optima Goniometry to determine the wettability of the surface. Measurements were made using the procedure described by Bain et al. (J. Am. Chem. Soc. 1989; Vol. 111, pgs. 321-335), known by those skilled in the art. About 1 μl drop of deionized water (purified with a Millipore Milli Q plus system) was formed at the end of the micro-liter syringe and brought into contact with the surface. Average contact angle value±standard deviation of 6 readings each on at least 3 samples have been reported.

[2] = tested on: 3T3 Swiss Albino embryo fibroblast cells; assay: Live/dead viability of cells on modified SS316L substrates; assay type: cell-based; settings: 3T3 fibroblasts, 10,000 cells/well, 24 hours on SAM-modified SS316L
Method: For cell experiments, 3T3 Swiss Albino embryo fibroblast cells of mouse were obtained from ATCC (CCL-92). The cells were grown in Dulbecco's modified Eagle medium (DMEM, Invitrogen Corp.) supplemented with 10% calf serum, 1% penicillin/[…] antibiotic. The cells were passaged every 3 days and were discarded after 15 passages. Cells were removed from the T 75 flasks by trypsinization, washed once with DMEM, suspended in culture medium. The modified SS316L substrates were placed in a 24 well plate and were sterilized with 70% ethanol for 10 mins and then rinsed with sterile distilled water 3 times. The sterilized substrates were left in the hood to dry. The suspended 3T3 Swiss Albino embryo fibroblast cells were then counted with a Haemocytometer after staining them with trypan blue and seeded at the density of 10,000 cells/well into each of the wells containing the substrates modified with respective acids After incubating the cells in humidified air with 5% CO2 for 24 hours at 37° C., the samples were rinsed with PBS three times and analyzed for live dead cells. […] This calcein is retained in the live cells and produces a green fluorescence. Ethidium homodimer is excluded by the intact plasma membrane of live cells but enters cells with damaged membranes (dead cells), binds to nucleic acid and produces a bright red fluorescence. […]

[3] = tested on: 3T3 Swiss Albino embryo fibroblast cells; assay: Cell adhesion (number of cells attached) on modified SS316L substrates; assay type: cell-based, mouse; settings: 3T3 cells, 24 hours, fluorescence microscopy
Method: For cell experiments, 3T3 Swiss Albino embryo fibroblast cells of mouse were obtained from ATCC (CCL-92). The cells were grown in Dulbecco's modified Eagle medium (DMEM, Invitrogen Corp.) supplemented with 10% calf serum, 1% penicillin/[…] antibiotic. The cells were passaged every 3 days and were discarded after 15 passages. Cells were removed from the T 75 flasks by trypsinization, washed once with DMEM, suspended in culture medium. The modified SS316L substrates were placed in a 24 well plate and were sterilized with 70% ethanol for 10 mins and then rinsed with sterile distilled water 3 times. The sterilized substrates were left in the hood to dry. The suspended 3T3 Swiss Albino embryo fibroblast cells were then counted with a Haemocytometer after staining them with trypan blue and seeded at the density of 10,000 cells/well into each of the wells containing the substrates modified with respective acids After incubating the cells in humidified air with 5% CO2 for 24 hours at 37° C., the samples were rinsed with PBS three times and analyzed for live dead cells. Viability/cytotoxicity kit (L-3224) obtained from Molecular Probes was used to provide a simultaneous determination of live and dead cells. The assay contains Calcein AM and ethidium homodimer dyes. The live cells are identified by the enzymatic conversion of the non-fluorescent cell permeant calcein AM to intensely fluorescent calcein. This calcein is retained in the live cells and produces a green fluorescence. Ethidium homodimer is excluded by the intact plasma membrane of live cells but enters cells with damaged membranes (dead cells), binds to nucleic acid and produces a bright red fluorescence. Live cells are in green and dead cells in red when viewed under fluorescent microscope.
After washing with PBS, 0.5 ml of the live/dead stain was added to each well and the well plate was covered with aluminum foil and placed in the incubator for about 30 minutes. Three samples of each type of modification were used for every set and four such sets were performed. Each sample was mounted on the microscope slide and viewed under fluorescence Nikon Eclipse microscope at 10× magnification. Five different spots were observed and counted for cells on each sample and average value used for calculation of significance. Viability calculations were performed on each sample by counting the number of live cells in the total number of cells.
ANOVA was used to determine the statistical difference between the means of data sets for cell experiments with the modified substrates and multiple comparisons of the sample means was performed using Bonferroni post test using confidence level of 0.05.
In order to determine the stability of the interfacial systems developed in this work under physiological conditions and their viability for use in biomedical devices (and more specifically medically implantable devices), cell adhesion studies using fibroblasts were conducted on four sets of independent experiments with three samples each of all functionalized SAM with carboxylate and phosphonate head groups. The substrates were modified with —CH3, —COOH, —OH terminated phosphonic acids and —CH3, —OH, —COOH and —NH2 terminated carboxylic acids by the solution deposition process of the present invention as set forth herein. […] The samples were then rinsed with PBS three times and analyzed for live dead cells using the Viability/cytotoxicity kit. […]

[4] = cited from earlier work

O=C(O)CCCCCCCCCCCCCCCO [C16OH—C, 16-hydroxyhexadecanoic acid]
Contact angle compared with control SS316L substrate [1]: lower contact angle values than the control
Contact angle values [1]: 48.6°

O=C(O)CCCCCCCCCCCCP(=O)(O)O [C12COOH—P, 12-carboxydodecanephosphonic acid]
Contact angle values [1]: 52.3°

CCCCCCCCCCCCCCCCCCP(=O)(O)O [ODPA, octadecylphosphonic acid]
Contact angle values [1]: 108°
Viability (live cells / total number of cells) [2]: about 92%
Number of cells attached to the modified SS316L (in words) [3]: fewer cell attachments than ODCA
Shape of the cells on the surface [3]: rounded and small
Number of cells attached to the modified SS316L (in words) ([3]; listed as methyl terminated phosphonic acid): the least in number
pKa [4]: pka = 4

NCCCCCCCCCCCCC(=O)O [C12NH2—C, 12-aminododecanecarboxylic acid]
Contact angle values [1]: 38.4°
Number of cells attached to the modified SS316L (in words) [3]: close to that in the control

CCCCCCCCCCCCCCCCCC(=O)O [Heptadecyl Carboxylic acid]
pKa [4]: pKa = 10

12-aminododecanecarboxylic acid [C12NH2—C]
Contact angle compared with control SS316L substrate [1]: lower contact angle values than the control

CCCCCCCCCCCCCCCCCCC(=O)O [ODCA, octadecylcarboxylic acid]
Contact angle values [1]: 104.1°
Contact angle values ([1]; listed as Octadecylcarboxylic acid): 104 °
Shape of the cells on the surface [3]: rounded and small
pKa [4]: pKa = 10

CCCCCCCCCCCCCCCCCCS(=O)(=O)O [Octadecyl sulfonic acid]
pKa [4]: pKa = 2

O=P(O)(O)CCCCCCCCCCCO [C11OH—P, 11-hydroxyundecanephosphonic acid]
Contact angle values [1]: 59.8°
Viability (live cells / total number of cells) [2]: about 92%

O=C(O)CCCCCCCCCCCCC(=O)O [C14COOH—C, 1,12-dodecanedicarboxylic acid]
Contact angle compared with control SS316L substrate [1]: lower contact angle values than the control
Contact angle values [1]: 42°
